In US20220204512A1, “SUBSTITUTED FUSED BICYCLIC DERIVATIVE, PREPARATION METHOD THEREFOR, AND APPLICATION THEREOF IN MEDICINES” (Jiangsu Hengrui Medicine Co., Ltd., priority 2019, published 2022):

What was measured:
Colo205 cells = experiment: In vitro proliferation inhibition test on Colo205 tumor cells (CellTiter-Glo); format: cell-based; conditions: Homo sapiens, COLO 205, 72 h; Colo205 cell proliferation, 3 days of culture, CTG
Description: The purpose of this experiment is to test the inhibitory activity of the compounds of the present disclosure on the proliferation of Colo205 cells (CCL-222, ATCC) in vitro. The cells were treated in vitro with different concentrations of the compounds. After 3 days of culture, the cell proliferation was tested with CTG (CellTiter-Glo® Luminescent Cell Viability Assay, Promega, Catalog No. G7573) reagent, and the in vitro activity of the compounds was evaluated according to the ICso value.
In the following, the in vitro proliferation inhibition test method of Colo205 cells is taken as an example to illustrate the method for testing the in vitro proliferation inhibitory activity of the compounds of the present disclosure on tumor cells. This method is also applicable to, but not limited to, the in vitro proliferation inhibitory activity test on other tumor cells.
Colo205 cells were digested, centrifuged and then resuspended. The single cell suspension was mixed well, and the density of viable cells was adjusted to 5.0×10^4 cells/ml with cell culture medium (RPMI1640+2% FBS), and 95 μL/well was added to a 96-well cell culture plate. Only 100 μL medium was added to the peripheral wells of the 96-well plate. The culture plate was incubated in an incubator for 24 hours (37° C., 5% CO2).
The compound was dissolved in DMSO (dimethyl sulfoxide, Shanghai Titan Scientific Co., Ltd.) and prepared as a stock solution with an initial concentration of 20 mM. The initial concentration of the small molecule compound was 2 mM, and then 4-fold diluted into 9 points, and the 10th point was DMSO. Another 96-well plate was taken, and 90 μL of cell culture medium (RPMI1640+2% FBS) was added to each well. Then 10 μL of different concentrations of the test sample was added to each well. The mixture was mixed well, and then 5μL of different concentrations of the test sample was added to the cell culture plate. Each sample has two duplicate holes. The culture plate was incubated in the incubator for 3 days (37° C., 5% CO2). The 96-well cell culture plate was taken out. 50 μL solution of CTG was added to each well, and the plate was incubated for 10 minutes at room temperature. In a microplate reader (BMG labtech, PHERAstar FS), chemiluminescence was measured with the microplate reader.
(§1) Microsoft Excel, Graphpad Prism 5 was used to process and analyze the data.

ERK1 = target: T1, ERK1 (Homo sapiens, UniProt P27361); experiment: ERK1 enzyme activity test (ADP-Glo Kinase Assay); format: biochemical; conditions: ADP-Glo chemiluminescence
T1 construct: purchased R&D 1879-KS-010
Description: The purpose of this experiment is to detect the inhibitory ability of the compounds of the present disclosure on the ERK1 enzyme activity and to evaluate the in vitro activity of the compounds based on the IC50. The ADP-Glo™ Kinase Assay Kit was used in this experiment. The substrate was phosphorylated under the action of the enzyme and ADP was produced at the same time. The ADP-Glo reagent was added to remove the unreacted ATP in the reaction system, and the ADP produced by the reaction was detected with kinase detection reagent. In the presence of the compound, the inhibition rate of the compound was calculated by measuring the signal value.
Preparation of Enzyme and substrate: ERK1 (1879-KS-010, R&D) and substrate (AS-61777, anaspec) were prepared to 0.75 ng/p1 and 100 μM respectively in a buffer, and then the enzyme solution and the substrate solution were prepared into a mixed solution at a volume ratio of 2:1 for later use. ATP was diluted to 300 μM with buffer. The compound was dissolved in DMSO (dimethyl sulfoxide, Shanghai Titan Scientific Co., Ltd.) to prepare a stock solution with an initial concentration of 20 mM, and then Bravo was used to prepare the compound. Finally, 3 μL of a mixed solution of enzyme and substrate, and 1 μL of different concentrations of the compound (the initial concentration was 50 μM, 4-fold dilution) were added to each well of the 384-well plate, and the plate was incubated at 30° C. for 10 minutes, and finally 1 μL of 300 μM ATP solution was added to each well, and the plate was incubated at 30° C. for 2 hours. Then 5 μL of ADP-Glo was added, and the plate was incubated at 30° C. for 40 minutes. Then 10 μL of kinase detection buffer was added, and the plate was incubated at 30° C. for 40 minutes. The 384-well plate was taken out and placed in a microplate reader (BMG labtech, PHERAstar FS), and the chemiluminescence was measured by a microplate reader.
as §1

ERK2 = target: T2, ERK2 (Homo sapiens, UniProt P28482); experiment: ERK2 enzyme activity test (ADP-Glo Kinase Assay); format: biochemical; conditions: ADP-Glo chemiluminescence
T2 construct: purchased R&D 1879-KS-010
How it was run: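 ADP-Glo luminescence readout of ADP formed by ERK2 phosphorylating a custom peptide in Tris/MgCl2/BSA/DTT buffer. Compound (top 50 μM, 4-fold dilutions) preincubated with enzyme/substrate 10 min at 30° C, then ATP added (500 μM stock) and reacted 2 h at 30° C. IC50 from inhibition rates.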

[1] = Pharmacokinetics assay in mice; format: in vivo; conditions: female, mouse, po, C57 mice, intragastric, 2 mg/kg, plasma
Description: Mice were used as test animals. The drug concentration in plasma at different time points was determined by LC/MS/MS method after administration of the compounds 1-P2, 2-P2, 4-P2, 6-P2, 9-P2, 10-P2 and 11-P2. The pharmacokinetic behavior of the compounds of the present disclosure was studied and evaluated in mice.
Sixty-three C57 mice (female, equally divided into seven groups) were purchased from Shanghai Jiesijie Laboratory Animal Co., LTD. (Certificate No.: SCXK(Shanghai)2013-0006).
A certain amount of the test compound was weighed, dissolved in 5% of DMSO by volume and 5% of tween 80, followed by the additon of 90% of normal saline to prepare a 0.1 mg/mL colorless, clear and transparent solution.
After an overnight fast, C57 mice were intragastrically administered the test compound at an administration dose of 2 mg/kg and an administration volume of 0.2 ml/10 g.
The mice were intragastrically administered the test compounds. 0.1 ml of blood was taken before the administration and at 0.25, 0.5, 1.0, 2.0, 4.0, 6.0, 8.0, 11.0 and 24.0 hours after the administration. The samples were stored in heparinized tubes, and centrifuged for 10 minutes at 3500 rpm to separate the blood plasma. The plasma samples were stored at −20° C.
The content of the test compound in the plasma of mice after intragastrical administration of the test compound at different concentrations was determined: 25 μL of […] plasma at each time point after the administration was taken, followed by the addition of 50 μL of the internal standard camptothecin solution (100ng/mL) and 200 μL of acetonitrile. The resulting solution was vortex-mixed for 5 minutes, and centrifuged for 10 minutes (4000 rpm). 4 μL of the supernatant was taken from the plasma samples for LC/MS/MS analysis.

T2 sequence (P28482 2-360 limits assumed): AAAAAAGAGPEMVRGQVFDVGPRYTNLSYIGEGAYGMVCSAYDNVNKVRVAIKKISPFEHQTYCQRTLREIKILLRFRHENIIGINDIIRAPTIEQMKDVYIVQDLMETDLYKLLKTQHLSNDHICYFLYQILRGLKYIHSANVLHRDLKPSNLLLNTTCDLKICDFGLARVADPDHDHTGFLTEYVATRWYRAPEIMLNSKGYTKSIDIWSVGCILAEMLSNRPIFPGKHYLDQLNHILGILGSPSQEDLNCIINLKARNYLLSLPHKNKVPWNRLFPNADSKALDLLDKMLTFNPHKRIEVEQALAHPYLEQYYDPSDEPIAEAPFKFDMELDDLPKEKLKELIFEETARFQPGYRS
T1 sequence (P27361 whole entry): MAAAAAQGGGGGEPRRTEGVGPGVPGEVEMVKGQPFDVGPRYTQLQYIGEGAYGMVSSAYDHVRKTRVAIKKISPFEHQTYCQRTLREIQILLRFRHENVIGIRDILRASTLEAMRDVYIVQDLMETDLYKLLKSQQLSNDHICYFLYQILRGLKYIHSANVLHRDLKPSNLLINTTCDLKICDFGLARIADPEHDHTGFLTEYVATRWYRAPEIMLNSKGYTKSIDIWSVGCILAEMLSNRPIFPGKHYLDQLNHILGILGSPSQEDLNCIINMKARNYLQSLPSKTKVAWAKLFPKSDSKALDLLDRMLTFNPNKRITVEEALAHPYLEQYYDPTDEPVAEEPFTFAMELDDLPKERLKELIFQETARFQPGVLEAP

SMILES: Cc1cccc([C@@H](CO)NC(=O)[C@@H](C)N2CCc3cc(-c4nc(NC5CCOCC5)ncc4Cl)cn3C2=O)c1 [Example 11-P2, (R)-2-(6-(5-Chloro-2-((tetrahydro-2H-pyran-4-yl)amino)pyrimidin-4-yl)-1-oxo-3,4-dihydropyrrolo[1,2-c]pyrimidin-2(1H)-yl)-N-((S)-2-hydroxy-1-(m-tolyl)ethyl)propanamide]
- IC50 (Colo205 cells): 26 nM
- IC50 (ERK1): 17 nM
- IC50 (ERK2): 2.1 nM
- Vd/F ([1]; read-out: Apparent distribution volume Vz/F): 3.51 L/kg
- AUC ([1]; read-out: Area under curve AUC): 784 ng·h/mL
- CL/F ([1]; read-out: Clearance CLz/F): 42.4 mL/min/kg
- half-life ([1]; read-out: Half-life T1/2 (converted)): 0.957 h
- Cmax ([1]; read-out: Plasma concentration Cmax): 813 ng/mL
- MRT ([1]; read-out: Residence time MRT): 1.15 h
